Laboratory results: ChEMBL document CHEMBL1133358, “Design, synthesis, and in vitro biological activity of benzimidazole based factor Xa inhibitors” (Bioorg Med Chem Lett, 2000)

Tests used:
[1] = target: Prothrombin (Homo sapiens, UniProt P00734)
Description: In vitro inhibitory activity against human coagulation factor II

[2] = target: T1, Serine protease 1 (Bos taurus, UniProt P00760); test: In vitro inhibitory activity against bovine cationic trypsin
T1 sequence (P00760 whole entry): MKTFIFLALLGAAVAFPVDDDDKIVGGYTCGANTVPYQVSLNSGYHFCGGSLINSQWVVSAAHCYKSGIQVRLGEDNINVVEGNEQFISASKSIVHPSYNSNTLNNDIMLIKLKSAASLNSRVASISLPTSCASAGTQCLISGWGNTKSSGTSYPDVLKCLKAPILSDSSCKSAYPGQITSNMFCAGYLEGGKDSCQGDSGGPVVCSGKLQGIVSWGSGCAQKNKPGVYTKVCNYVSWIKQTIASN

[3] = target: Coagulation factor X (Homo sapiens, UniProt P00742); test: In vitro inhibitory activity against human Coagulation factor X
[4] = species: Homo sapiens; test: Concentration required to double the prothrombin based clotting time in human plasma; type: functional

Coagulation factor X, sequence (P00742 41-179 limits assumed): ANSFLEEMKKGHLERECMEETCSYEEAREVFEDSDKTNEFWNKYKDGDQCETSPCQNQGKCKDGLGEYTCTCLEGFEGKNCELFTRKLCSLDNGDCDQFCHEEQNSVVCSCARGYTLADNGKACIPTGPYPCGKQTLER
Coagulation factor X, sequence (P00742 235-488 limits assumed): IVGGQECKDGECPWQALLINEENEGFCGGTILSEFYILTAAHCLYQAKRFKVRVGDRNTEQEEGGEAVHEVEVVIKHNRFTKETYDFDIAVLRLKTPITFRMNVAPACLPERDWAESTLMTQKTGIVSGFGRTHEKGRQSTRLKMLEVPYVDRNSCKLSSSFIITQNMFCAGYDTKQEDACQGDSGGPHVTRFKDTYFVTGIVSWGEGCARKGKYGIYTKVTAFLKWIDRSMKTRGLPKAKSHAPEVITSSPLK

SMILES	Ki [1] [nM]	Ki [2] [nM]	Ki [3] [nM]	PT [4] [nM]
CCOC(=O)CCC(=O)N(c1ccc2c(c1)nc(C)n2Cc1ccc2ccc(C(=N)N)cc2c1)C1CCN(C(C)=N)CC1	5000	800	370	–
CC(=N)N1CCC(N(CCCC(=O)O)c2ccc3c(c2)nc(C)n3Cc2ccc3ccc(C(=N)N)cc3c2)CC1	5000	800	370	–
CC(=N)N1CCC(Oc2ccc3c(c2)ncn3Cc2ccc3ccc(C(=N)N)cc3c2)CC1	> 5000	8.2	6.3	–
COC(=O)CN(c1ccc2nc(C)n(Cc3ccc4ccc(C(=N)N)cc4c3)c2c1)C1CCN(C(C)=N)CC1	98	11	0.3	–
CC(=N)N1CCC(Oc2ccc3c(c2)nc(CCC(N)=O)n3Cc2ccc3ccc(C(=N)N)cc3c2)CC1	> 5000	10	3.6	–
CC(=N)N1CCC(N(C(=O)CCC(=O)O)c2ccc3nc(C)n(Cc4ccc5ccc(C(=N)N)cc5c4)c3c2)CC1	5000	670	417	–
CC(=N)N1CCC(Oc2ccc3nc(C)n(Cc4ccc5ccc(C(=N)N)cc5c4)c3c2)CC1	230	–	–	350
CC(=N)N1CCC(N(CC(C)C(=O)O)c2ccc3nc(C)n(Cc4ccc5ccc(C(=N)N)cc5c4)c3c2)CC1 (stereo unspecified)	650	47	3	–
CC(=N)N1CCC(Oc2ccc3c(c2)nc(C(C)(C)C)n3Cc2ccc3ccc(C(=N)N)cc3c2)CC1	950	18	2	–
CC(=N)N1CCC(Oc2ccc3ncn(Cc4ccc5ccc(C(=N)N)cc5c4)c3c2)CC1	810	50	2.9	450
CCCCc1nc2cc(OC3CCN(C(C)=N)CC3)ccc2n1Cc1ccc2ccc(C(=N)N)cc2c1	2000	14	2.8	–
CC(=N)N1CCC(Oc2ccc3c(c2)nc(C(C)C)n3Cc2ccc3ccc(C(=N)N)cc3c2)CC1	–	16	2	–
CCCc1nc2ccc(OC3CCN(C(C)=N)CC3)cc2n1Cc1ccc2ccc(C(=N)N)cc2c1	70	6.8	0.23	290
CC(=N)N1CCC(N(CC(C)C(=O)O)c2ccc3c(c2)nc(C)n3Cc2ccc3ccc(C(=N)N)cc3c2)CC1 (stereo unspecified)	5000	120	80	–
CC(=N)N1CCC(Oc2ccc3nc(C(C)C)n(Cc4ccc5ccc(C(=N)N)cc5c4)c3c2)CC1	32	5.7	0.026	68
CC(=N)N1CCC(N(CCCC(=O)O)c2ccc3nc(C)n(Cc4ccc5ccc(C(=N)N)cc5c4)c3c2)CC1	5000	670	420	–
CCCCc1nc2ccc(OC3CCN(C(C)=N)CC3)cc2n1Cc1ccc2ccc(C(=N)N)cc2c1	230	5.7	0.23	625

SMILES	Ki [1] [nM]	Ki [2] [nM]	Ki [3] [nM]	PT [4] [nM]
CCc1nc2cc(OC3CCN(C(C)=N)CC3)ccc2n1Cc1ccc2ccc(C(=N)N)cc2c1	2100	17	4	–
COC(=O)CN(c1ccc2c(c1)nc(C)n2Cc1ccc2ccc(C(=N)N)cc2c1)C1CCN(C(C)=N)CC1	2700	7.6	–	–
CCOC(=O)CCC(=O)N(c1ccc2nc(C)n(Cc3ccc4ccc(C(=N)N)cc4c3)c2c1)C1CCN(C(C)=N)CC1	4600	256	300	–
COC(=O)C(C)CN(c1ccc2c(c1)nc(C)n2Cc1ccc2ccc(C(=N)N)cc2c1)C1CCN(C(C)=N)CC1 (stereo unspecified)	5000	160	80	–
COC(=O)C(C)CN(c1ccc2nc(C)n(Cc3ccc4ccc(C(=N)N)cc4c3)c2c1)C1CCN(C(C)=N)CC1 (stereo unspecified)	300	41	1.1	–
COC(=O)CCCN(c1ccc2nc(C)n(Cc3ccc4ccc(C(=N)N)cc4c3)c2c1)C1CCN(C(C)=N)CC1	4610	260	300	–
COC(=O)CCCN(c1ccc2c(c1)nc(C)n2Cc1ccc2ccc(C(=N)N)cc2c1)C1CCN(C(C)=N)CC1	6000	60	30	–
CCC(C)c1nc2cc(OC3CCN(C(C)=N)CC3)ccc2n1Cc1ccc2ccc(C(=N)N)cc2c1 (stereo unspecified)	2300	13	3.3	–
CC(=N)N1CCC(Oc2ccc3nc(CCC(N)=O)n(Cc4ccc5ccc(C(=N)N)cc5c4)c3c2)CC1	590	4.4	1	–
CCc1nc2ccc(OC3CCN(C(C)=N)CC3)cc2n1Cc1ccc2ccc(C(=N)N)cc2c1	60	7.7	0.087	130
CC(=N)N1CCC(Oc2ccc3c(c2)nc(CCC(=O)O)n3Cc2ccc3ccc(C(=N)N)cc3c2)CC1	> 5000	14	5.9	–
CCCc1nc2cc(OC3CCN(C(C)=N)CC3)ccc2n1Cc1ccc2ccc(C(=N)N)cc2c1	2400	16	4.5	–
CCC(C)c1nc2ccc(OC3CCN(C(C)=N)CC3)cc2n1Cc1ccc2ccc(C(=N)N)cc2c1 (stereo unspecified)	160	10	0.12	280
CC(=N)N1CCC(N(CC(N)=O)c2ccc3nc(C)n(Cc4ccc5ccc(C(=N)N)cc5c4)c3c2)CC1	490	28	0.46	–
CC(=N)N1CCC(Oc2ccc3nc(CCC(=O)O)n(Cc4ccc5ccc(C(=N)N)cc5c4)c3c2)CC1	2670	18	1.3	–
CC(=N)N1CCC(Oc2ccc3nc(C(C)(C)C)n(Cc4ccc5ccc(C(=N)N)cc5c4)c3c2)CC1	48	7	0.046	260
CC(=N)N1CCC(Oc2ccc3c(c2)nc(C)n3Cc2ccc3ccc(C(=N)N)cc3c2)CC1	3900	16	6.2	–
